Reference: patent US20240101548A1, “HYDROXAMATE COMPOUND, PREPARATION METHOD THEREFOR AND APPLICATION THEREOF” (SHENZHEN CHIPSCREEN BIOSCIENCES CO., LTD., priority 2020, published 2024)
Like-named read-outs stand apart in the source and are kept apart here.

How the values were obtained:
[1] = system: IL-2-induced JAK1/JAK3 signal pathway; assay: IL-2-induced proliferation of KHYG-1 cells (JAK1/JAK3 signal); format: cell-based, human; conditions: Homo sapiens, read-out: Inhibition activity IC50 on IL-2-induced JAK1/JAK3 signal pathway
Text: The main physiological function of cytokine IL-2 is to stimulate and maintain the proliferation and differentiation of T cells. Generally, IL-2 dependent T cells cannot survive in in-vitro culture for a long time, but the addition of IL-2 can make them continue to proliferate. The signal pathway induced by IL-2 coupling with its receptor is mediated by JAK1/JAK3-STAT5, so the inhibitor of JAK1 and/or JAK3 can inhibit the proliferation of IL-2 dependent cells.
Human natural killer cell lymphoma cell line KHYG-1 was commercially available from Health Science Research Resources Bank (HSRRB), and relevant culture conditions referred to those from HSRRB.
The inhibition rate of the tested compound on IL-2-induced cell proliferation was calculated using Microsoft Excel.
After culture at 37° C. and 5% CO2 for 72 hours, alamarBlue™ Cell Viability Reagent was added to each well following the instructions.
(§1) The well in which neither compound nor cytokine was added was designated as 0% control well, and the fluorescence value in the wells in which the final concentration of compound was 0 was designated as 100% control. The inhibition activity C50 of the tested compound on JAK1/JAK3 could be calculated from the inhibition rate of the tested compound on IL-2-induced cell proliferation at different doses.

[2] = system: EPO-induced JAK2 signal pathway; assay: EPO-induced proliferation of UT-7 cells (JAK2 signal); format: cell-based, human; conditions: Homo sapiens, UT7; UT-7 cell proliferation, EPO 10 ng/mL, 72 hours; read-out: Inhibition activity IC50 on EPO-induced JAK2 signal pathway
Method: The cytokine EPO, i.e. erythropoietin, can promote the proliferation and division of erythroid progenitor cells, and the signal pathway induced by EPO coupling with its receptor is mediated by JAK2-STAT5.
Human promegakaryocytic leukemia cell line UT-7 was commercially available from Cell Resource Center, Institute of Basic Medicine, Chinese Academy of Medical Sciences. The culture medium was RPIM1640 containing 10% FBS, and EPO was added for a final concentration of 10 ng/mL.
The inhibition rate of the tested compound on EPO-induced cell proliferation was calculated using Microsoft Excel.
UT-7 cell line was inoculated in 96-well plate with flat bottom at 15000 cells per well, each well was added with 10 ng/mL of human recombinant EPO (Human EPO PEPROTECH 100-64-10UG), along with tested compound respectively for a final concentration of 0, 100, 1000 or 10000 nM. After culture at 37° C. and 5% CO2 for 72 hours, alamarBlue™ Cell Viability Reagent was added to each well following the instructions. After incubation at 37° C. for color reaction, the fluorescence value at Ex530/Em590 was detected using Tecan Spark™ 10M multimode microplate reader.
as §1, with “[…]” for “0%”, “100” for “100%”, “[…] ofthe” for “C50 of the”, “JAK2” for “JAK1/JAK3”, “ofthe” for “of the”, “EPO-induced” for “IL-2-induced”

[3] = KHYG-1 cell proliferation, IL-2 10 ng/mL, 72 hours

Row | Compound | IC50 [1, 3] | IC50 [2] | IC50 ([1]; KHYG-1, 72 h)
1 | CCONC(=O)c1cnc(Nc2cc(C)ccn2)cc1Nc1ccc(C2CC2)cc1N(C)S(C)(=O)=O [Example 147, 4-((4-cyclopropyl-2-(N-methylmethanesulfonamido)phenyl)amino)-N-ethoxy-6-((4-methylpyridin-2-yl)amino)nicotinamide] | > 10 µM | > 10 µM | –
2 | CONC(=O)c1cnc(NC(=O)C2CC2)cc1Nc1cccc(-c2noc(C)n2)c1OC [Example 55, 6-(cyclopropylcarboxamido)-N-methoxy-4-((2-methoxy-3-(5-methyl-1,2,4-oxadiazol-3-yl)phenyl)amino)nicotinamide] | > 10 µM | > 10 µM | –
3 | CONC(=O)c1nnc(NC(=O)C2CC2)cc1Nc1cccc(-c2ccn(C)n2)c1OC [Example 53, 6-(cyclopropylcarboxamido)-N-methoxy-4-((2-methoxy-3-(1-methyl-1H-pyrazol-3-yl)phenyl)amino)pyridazine-3-carboxamide] | > 10 µM | > 10 µM | –
4 | CONC(=O)c1cnc(NC(=O)C2CC2)cc1Nc1cnccc1N(C)S(C)(=O)=O [Example 56, 6-(cyclopropylcarboxamido)-N-methoxy-4-((4-(N-methylmethanesulfonamido)pyridin-3-yl)amino)nicotinamide] | > 10 µM | > 10 µM | –
5 | CONC(=O)c1cnc(Nc2cccnc2OC)cc1Nc1cccc(Cl)c1N(C)S(C)(=O)=O [Example 78, 4-((3-chloro-2-(N-methylmethanesulfonamido)phenyl)amino)-N-methoxy-6-((2-methoxypyridin-3-yl)amino)nicotinamide] | > 10 µM | > 10 µM | –
6 | C#Cc1ccc(Nc2cc(Nc3ncccn3)ncc2C(=O)NOCC)c(N(C)S(C)(=O)=O)c1 [Example 163, N-ethoxy-4-((4-ethynyl-2-(N-methylmethanesulfonamido)phenyl)amino)-6-(pyrimidin-2-ylamino)nicotinamide] | > 10 µM | > 10 µM | –
7 | CCONC(=O)c1cnc(NC(=O)C2CC2)cc1Nc1cccc(-c2cnn(C)c2)c1OC [Example 26, 6-(cyclopropylcarboxamido)-N-ethoxy-4-((2-methoxy-3-(1-methyl-1H-pyrazol-4-yl)phenyl)amino)nicotinamide] | > 10 µM | > 10 µM | –
8 | CONC(=O)c1cnc(NC(=O)C2CC2)cc1Nc1ccccc1S(=O)(=O)N(C)C [Example 34, 6-(cyclopropylcarboxamido)-4-((2-(N,N-dimethylaminosulfonyl)phenyl)amino)-N-methoxy nicotinamide] | > 10 µM | > 10 µM | –
9 | CCONC(=O)c1cnc(Nc2ncccn2)cc1Nc1ccc(C2CC2)cc1N(C)S(C)(=O)=O [Example 124, 4-((4-cyclopropyl-2-(N-methylmethanesulfonamido)phenyl)amino)-N-ethoxy-6-(pyrimidin-2-ylamino)nicotinamide] | > 10 µM | > 10 µM | –
10 | CCONC(=O)c1cnc(Nc2cc(C)nc(C)c2)cc1Nc1ccc(C2CC2)cc1N(C)S(C)(=O)=O [Example 221] | > 10 µM | > 10 µM | –
11 | CON(C)C(=O)c1cnc(Nc2cccc(F)n2)cc1Nc1ccccc1N(C)S(C)(=O)=O [Example 65, 6-((6-fluoropyridin-2-yl)amino)-N-methoxy-N-methyl-4-((2-(N-methylmethanesulfonamido)phenyl)amino)nicotinamide] | – | > 10 µM | > 10 µM
12 | CCONC(=O)c1cnc(Nc2cc(C)nc(C)n2)cc1Nc1cc(C)c(C2CC2)cc1N(C)S(C)(=O)=O [Example 121] | > 10 µM | > 10 µM | –
13 | CCONC(=O)c1cnc(Nc2ccc(C3CC3)cn2)cc1Nc1ccc(Cl)cc1N(C)S(C)(=O)=O [Example 152, 4-((4-chloro-2-(N-methylmethanesulfonamido)phenyl)amino)-6-((5-cyclopropylpyridin-2-yl)amino)-N-ethoxy nicotinamide] | > 10 µM | > 10 µM | –
14 | CONC(=O)c1cnc(Nc2cccc(F)n2)cc1Nc1ccccc1OC1COC1 [Example 40] | > 10 µM | > 10 µM | –
15 | CONC(=O)c1cnc(Nc2ccc(F)cn2)cc1Nc1cnccc1N(C)S(C)(=O)=O [Example 58, 6-((5-fluoropyridin-2-yl)amino)-N-methoxy-4-((4-(N-methylmethanesulfonamido)pyridin-3-yl)amino)nicotinamide] | > 10 µM | > 10 µM | –
16 | CONC(=O)c1cnc(Nc2ccc(F)cc2)cc1Nc1ccccc1N(C)S(C)(=O)=O [Example 104, 6-((4-fluorophenyl)amino)-N-methoxy-4-((2-(N-methylmethanesulfonamido)phenyl)amino)nicotinamide] | > 10 µM | > 10 µM | –
17 | C#Cc1ccc(Nc2cc(Nc3nc(C)cc(C)n3)ncc2C(=O)NOCC)c(N(C)S(C)(=O)=O)c1 [Example 164, 6-((4,6-dimethylpyrimidin-2-yl)amino)-N-ethoxy-4-((4-ethynyl-2-(N-methylmethanesulfonamido)phenyl)amino)nicotinamide] | > 10 µM | > 10 µM | –
18 | CCONC(=O)c1cnc(Nc2ccc(C)nc2)cc1Nc1ccc(C2CC2)cc1N(C)S(C)(=O)=O [Example 148, 4-((4-cyclopropyl-2-(N-methylmethanesulfonamido)phenyl)amino)-N-ethoxy-6-((6-methylpyridin-3-yl)amino)nicotinamide] | > 10 µM | > 10 µM | –
19 | CCONC(=O)c1cnc(Nc2cccc(F)n2)cc1Nc1ccccc1NS(C)(=O)=O [Example 117, N-ethoxy-6-((6-fluoropyridin-2-yl)amino)-4-((2-(methanesulfonamido)phenyl)amino)nicotinamide] | > 10 µM | > 10 µM | –
20 | CONC(=O)c1cnc(Nc2ccc(F)cn2)cc1Nc1ccc(OC)nc1N(C)S(C)(=O)=O [Example 8, 6-((5-fluoropyridin-2-yl)amino)-N-methoxy-4-((6-methoxy-2-(N-methylmethanesulfonamido)pyridin-3-yl)amino)nicotinamide] | > 10 µM | > 10 µM | –
21 | CONC(=O)c1cnc(Nc2ccc(F)cn2)cc1Nc1cccc(Cl)c1N(C)S(C)(=O)=O [Example 77, 4-((3-chloro-2-(N-methylmethanesulfonamido)phenyl)amino)-6-((5-fluoropyridin-2-yl)amino)-N-methoxy nicotinamide] | > 10 µM | > 10 µM | –
22 | CONC(=O)c1cnc(NC(=O)C2CC2)cc1Nc1cccc(C(N)=O)c1OC [Example 57, 4-((3-carbamoyl-2-methoxyphenyl)amino)-6-(cyclopropylcarboxamido)-N-methoxy nicotinamide] | > 10 µM | > 10 µM | –
23 | CONC(=O)c1cnc(NC(=O)C2CC2)cc1Nc1cccc(C2CC2)c1N(C)S(C)(=O)=O [Example 85, 6-(cyclopropylcarboxamido)-4-((3-cyclopropyl-2-(N-methylmethanesulfonamido)phenyl)amino)-N-methoxy nicotinamide] | > 10 µM | > 10 µM | –
24 | CCONC(=O)c1cnc(Nc2ccc(C3CC3)cn2)cc1Nc1ccccc1N(C)S(C)(=O)=O [Example 27, 6-((5-cyclopropylpyridin-2-yl)amino)-N-ethoxy-4-((2-(N-methylmethanesulfonamido)phenyl)amino)nicotinamide] | > 10 µM | > 10 µM | –
25 | CCONC(=O)c1cnc(Nc2cc(C)nc(C)n2)cc1Nc1cccc(-c2cnn(C)c2)c1OC [Example 25, 6-((2,6-dimethylpyrimidin-4-yl)amino)-N-ethoxy-4-((2-methoxy-3-(1-methyl-1H-pyrazol-4-yl)phenyl)amino)nicotinamide] | > 10 µM | > 10 µM | –
26 | CONC(=O)c1cnc(Nc2ccc(F)cc2)cc1Nc1ccc(C)nc1N(C)S(C)(=O)=O [Example 64, 6-((4-fluorophenyl)amino)-N-methoxy-4-((6-methyl-2-(N-methylmethanesulfonamido)pyridin-3-yl)amino)nicotinamide] | > 10 µM | > 10 µM | –
27 | CCONC(=O)c1cnc(Nc2ccnn2C)cc1Nc1ccc(N2CCOCC2)cc1N(C)S(C)(=O)=O [Example 135] | > 10 µM | > 10 µM | –
28 | CCONC(=O)c1cnc(Nc2cc(C)nc(C)n2)cc1Nc1ccc(Cl)cc1N(C)S(=O)(=O)C1CC1 [Example 184] | > 10 µM | > 10 µM | –
